Reference: ChEMBL document CHEMBL5661943, “ASAP - In vitro antiviral effect” (2024)

Tests used:
Zika virus = assay: EC50 is reported via analysis of immunofluorescence staining. The assay has been performed by Icahn School of Medicine at Mount Sinai.; type: functional, organism-based, Chlorocebus sabaeus, VeroE6/TMPRSS2; conditions: Zika virus; for EC90: P-gp concentration 2 uM, P-gp inhibitor Elacidar
dengue virus type 2 = assay: Functional immunofluorescence assay to measure dose dependent changes in antiviral-drug inhibitory efficacy against Dengue virus type 2 Thailand/16681/84 in Vero E6/TMPRSS2 cells (cotreated with P-gp inhibitor, Elacridar). Cells are treated with antiviral candidates that are serially diluted, following infection, cells are fixed. EC50 is reported via analysis of immunofluorescence staining. The assay has been performed by Icahn School of Medicine at Mount Sinai.; type: organism-based, Chlorocebus sabaeus, VeroE6/TMPRSS2

Structure (SMILES): O=C(Nc1ccc2c(c1)CNC2)c1cc(Cl)ccc1SC1CCCC1
- EC50 (Zika virus; VeroE6/TMPRSS2): > 16.7 µM
- EC90 (Zika virus; VeroE6/TMPRSS2, Maximum measured 121.888 %, Minimum measured 81.617 %): > 16.7 µM
- EC50 (dengue virus type 2; Dengue virus, VeroE6/TMPRSS2): > 16.7 µM
- EC90 (dengue virus type 2; Dengue virus, VeroE6/TMPRSS2, Maximum measured 58.655 %, Minimum measured 40.644 %, P-gp concentration 2 uM, P-gp inhibitor Elacidar): > 16.7 µM

Structure (SMILES): O=C(O)CCc1ccc(NC(=O)c2cc(Cl)cc(NC(=O)OCc3ccccc3)c2)cc1
- EC50 (Zika virus; VeroE6/TMPRSS2): > 50 µM
- EC90 (Zika virus; VeroE6/TMPRSS2, Maximum measured 138.099 %, Minimum measured 61.86 %): > 50 µM
- EC50 (dengue virus type 2; Dengue virus, VeroE6/TMPRSS2): 23.4 µM
- EC90 (dengue virus type 2; Dengue virus, VeroE6/TMPRSS2): 44.4 µM

Structure (SMILES): NCc1cccc(NC(=O)C[C@H](NC(=O)OCc2ccccc2)c2ccc(OCc3ccccc3)c(Br)c2)c1
- EC50 (Zika virus; VeroE6/TMPRSS2): 1.7 µM
- EC90 (Zika virus; VeroE6/TMPRSS2, Baseline response 0 %, Hill slope -0.518, Maximum measured 120.113 %, Maximum response 100 %, Minimum measured 9.459 %, R squared 0.639): > 50 µM
- EC50 (dengue virus type 2; Dengue virus, VeroE6/TMPRSS2): > 16.7 µM
- EC90 (dengue virus type 2; Dengue virus, VeroE6/TMPRSS2, Baseline response 0 %, Hill slope 0.065, Maximum measured 60.527 %, Maximum response 100 %, Minimum measured 30.522 %, P-gp concentration 2 uM, R squared 0.087, P-gp inhibitor Elacidar): > 16.7 µM

Structure (SMILES): O=C(Nc1cc(Cl)cc(C(=O)Nc2cc(Br)cc(-c3nnn[nH]3)c2)c1)OCc1ccccc1
- EC50 (Zika virus; VeroE6/TMPRSS2): 41.4 µM
- EC90 (Zika virus; VeroE6/TMPRSS2, Baseline response 0 %, Hill slope -35.305, Maximum measured 180.813 %, Maximum response 100 %, Minimum measured 13.985 %, R squared 0.137): 44.1 µM
- EC50 (dengue virus type 2; Dengue virus, VeroE6/TMPRSS2): 11.4 µM
- EC90 (dengue virus type 2; Dengue virus, VeroE6/TMPRSS2, Baseline response 0 %, Hill slope -3.68, Maximum measured 234.045 %, Maximum response 186.52 %, Minimum measured 36.837 %, P-gp concentration 2 uM, R squared 0.67, P-gp inhibitor Elacidar): > 16.7 µM

Structure (SMILES): O=C(Nc1cc(Cl)cc(C(=O)Nc2ccc3c(c2)CNCCO3)c1)OCc1ccccc1
- EC50 (Zika virus; VeroE6/TMPRSS2): 5.26 µM
- EC90 (Zika virus; VeroE6/TMPRSS2, Baseline response 0 %, Hill slope -16.118, Maximum measured 155.613 %, Maximum response 100 %, Minimum measured 29.546 %, R squared 0.374): > 5.56 µM
- EC50 (dengue virus type 2; Dengue virus, VeroE6/TMPRSS2): 0.669 µM
- EC90 (dengue virus type 2; Dengue virus, VeroE6/TMPRSS2, Baseline response 0 %, Hill slope -1.036, Maximum measured 111.022 %, Maximum response 100 %, Minimum measured 5.282 %, P-gp concentration 2 uM, R squared 0.817, P-gp inhibitor Elacidar): > 5.56 µM

Structure (SMILES): CCOc1cccc(-c2ccc(S(=O)(=O)Nc3cc4c(cc3C(=O)O)CCC4)cc2)c1
- EC50 (Zika virus; VeroE6/TMPRSS2): > 50 µM
- EC90 (Zika virus; VeroE6/TMPRSS2, Baseline response 0 %, Hill slope -16.078, Maximum measured 130.08 %, Maximum response 100 %, Minimum measured 52.734 %, R squared 0.304): > 50 µM
- EC50 (dengue virus type 2; Dengue virus, VeroE6/TMPRSS2): > 16.7 µM
- EC90 (dengue virus type 2; Dengue virus, VeroE6/TMPRSS2, Baseline response 0 %, Hill slope -0.37, Maximum measured 131.408 %, Maximum response 100 %, Minimum measured 56.89 %, P-gp concentration 2 uM, R squared 0.244, P-gp inhibitor Elacidar): > 16.7 µM

Structure (SMILES): CCCC(=O)Nc1cc(Cl)cc(C(=O)Nc2cccc(CN)c2)c1
- EC50 (Zika virus; VeroE6/TMPRSS2): > 16.7 µM
- EC90 (Zika virus; VeroE6/TMPRSS2, Baseline response 0 %, Hill slope -0.382, Maximum measured 108.39 %, Maximum response 100 %, Minimum measured 82.052 %, R squared 0.052): > 16.7 µM
- EC50 (dengue virus type 2; Dengue virus, VeroE6/TMPRSS2): > 50 µM
- EC90 (dengue virus type 2; Dengue virus, VeroE6/TMPRSS2, Maximum measured 163.615 %, Minimum measured 116.069 %, P-gp concentration 2 uM, P-gp inhibitor Elacidar): > 50 µM

Structure (SMILES): N#Cc1cc(Cl)cc([C@H](C#N)Nc2ccc3c(c2)CNC3)c1
- EC50 (Zika virus; VeroE6/TMPRSS2): > 50 µM
- EC90 (Zika virus; VeroE6/TMPRSS2, Baseline response 0 %, Hill slope -0.289, Maximum measured 115.578 %, Maximum response 100 %, Minimum measured 78.039 %, R squared 0.102): > 50 µM
- EC50 (dengue virus type 2; Dengue virus, VeroE6/TMPRSS2): > 16.7 µM
- EC90 (dengue virus type 2; Dengue virus, VeroE6/TMPRSS2, Maximum measured 121.447 %, Minimum measured 87.688 %, P-gp concentration 2 uM, P-gp inhibitor Elacidar): > 16.7 µM

Structure (SMILES): NCc1cccc(NC(=O)c2cc(Cl)cc3c2CCC3)c1
- EC50 (Zika virus; VeroE6/TMPRSS2): > 16.7 µM
- EC90 (Zika virus; VeroE6/TMPRSS2, Maximum measured 83.197 %, Minimum measured 51.618 %): > 16.7 µM
- EC50 (dengue virus type 2; Dengue virus, VeroE6/TMPRSS2): > 10 µM
- EC90 (dengue virus type 2; Dengue virus, VeroE6/TMPRSS2, Maximum measured 223.993 %, Minimum measured 74.273 %, P-gp concentration 2 uM, P-gp inhibitor Elacidar): > 16.7 µM
- EC90 (dengue virus type 2; Dengue virus, VeroE6/TMPRSS2, Baseline response 0 %, Hill slope 0.162, Maximum measured 165.889 %, Maximum response 100 %, Minimum measured 52.995 %, P-gp concentration 2 uM, R squared 0.068, P-gp inhibitor Elacidar): > 10 µM
- EC50 (dengue virus type 2; veroe6/tmprss2): > 16.7 µM

Structure (SMILES): O=C(Nc1ccc2c(c1)CNC2)c1cc(Br)cc2[nH]c(C3CCOCC3)nc12
- EC50 (Zika virus; VeroE6/TMPRSS2): > 5.56 µM
- EC90 (Zika virus; VeroE6/TMPRSS2, Maximum measured 127.67 %, Minimum measured 33.686 %): > 5.56 µM
- EC50 (dengue virus type 2; Dengue virus, VeroE6/TMPRSS2): > 5.56 µM
- EC90 (dengue virus type 2; Dengue virus, VeroE6/TMPRSS2, Maximum measured 89.147 %, Minimum measured 35.738 %, P-gp concentration 2 uM, P-gp inhibitor Elacidar): > 5.56 µM
